The values below come from US10900063B2, “Measurement of Lp-PLA2 activity” (ASAHI KASEI PHARMA CORPORATION, priority 2016, dated 2021).

One test concerns the target T1, Lp-PLA2 (Homo sapiens, UniProt Q13093).
T1 construct: Individual serum No. 16, individual serum No. 78; from tissue; host or cells: serum and plasma (individual sera, pooled sera, heparin and citrated pooled plasma)
T1 sequence (Q13093 22-441): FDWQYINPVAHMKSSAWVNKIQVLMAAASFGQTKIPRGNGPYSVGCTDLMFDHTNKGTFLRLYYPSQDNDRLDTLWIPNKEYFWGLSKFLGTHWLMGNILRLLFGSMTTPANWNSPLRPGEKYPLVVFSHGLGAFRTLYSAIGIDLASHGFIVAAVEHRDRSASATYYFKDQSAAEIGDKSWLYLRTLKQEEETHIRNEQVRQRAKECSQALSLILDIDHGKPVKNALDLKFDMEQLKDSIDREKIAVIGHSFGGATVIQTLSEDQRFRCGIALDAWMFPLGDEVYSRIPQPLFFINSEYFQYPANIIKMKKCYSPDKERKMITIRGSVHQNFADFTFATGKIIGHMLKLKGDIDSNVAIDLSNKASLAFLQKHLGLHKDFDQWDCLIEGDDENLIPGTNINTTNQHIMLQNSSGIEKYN
In words: Lp-PLA2 activity measurement in serum/plasma with reagents of the invention (PAF substrate, lyso-PAF-PLD, choline oxidase, peroxidase colorimetry). Format: biochemical. As to conditions: Example 9; for Lp-PLA2 activity value / absorbance change per minute (sensitivity): 10 mM substrate in R2; for Relative activity: PAF(C16) = 100. The method, then: Unless otherwise specified, in these examples the Method 1 described under 1) below is used for calculating Lp-PLA2 activity values. In these examples, (nmol/min/mL) is sometimes expressed as (U/L).
This is calculated by the following formula based on the absorbance change per minute (ΔmAbs/min) as calculated from absorbance at the measuring points and the millimolar extinction coefficient (ε=36) of TODB at 546 nm.
4 μL of the sample was mixed with 160 μL of the R1 reagent, and incubated for 5 minutes at 37° C. (measuring points 1 to 16), after which 40 μL of the R2 reagent was added to initiate a reaction (measuring point 17). The absorbance of water (blank) at the same measuring points was subtracted from the absorbance of the sample about 3.6 to 4.5 minutes after the reaction was initiated by addition of the R2 reagent (measuring points 30 to 33) to calculate the absorbance change per minute (ΔmAbs/min), and the Lp-PLA2 activity value (nmol/min/mL) was calculated according to the previous formula.
[…] was mixed with 150 μL of the R1 reagent, and incubated for 5 minutes at 37° C. (measuring points 1 to 15), after which 100 μL of the R2 reagent was added to initiate a reaction (measuring point 16). The absorbance of water (blank) at the same measuring points was subtracted from the absorbance of the sample about 2 to 3 minutes after the reaction was initiated by addition of the R2 reagent (measuring points 23 to 26) to calculate the absorbance change per minute (ΔmAbs/min), and the Lp-PLA2 activity value (nmol/min/mL) was calculated according to the previous formula. The values for absorbance change per minute (sensitivity) (ΔmAbs/min) and the Lp-PLA2 activity values (nmol/min/mL) at each pH are shown in Tables 1 and 2.
(§1) 5 μL of sample was mixed with 150 μL of the R1 reagent, and incubated for 5 minutes at 37° C. (measuring points 1 to 15), after which 100 μL of the R2 reagent was added to initiate a reaction (measuring point 16). The absorbance of water (blank) at the same measuring points was subtracted from the absorbance of the sample about 3.5 to 4.5 minutes after the reaction was initiated by addition of the R2 reagent (measuring points 27 to 30) to calculate the absorbance change per minute (ΔmAbs/min), and the Lp-PLA2 activity value (nmol/min/mL) was calculated according to the previous formula. The values for absorbance change per minute (sensitivity) (ΔmAbs/min) and Lp-PLA2 activity (nmol/min/mL) and the relative activity for each substrate given 100 as the Lp-PLA2 activity value for PAF(C16) are shown in Tables 19 to 24.
Each sample was mixed with 160 μL of the R1 reagent, and incubated for 5 minutes at 37° C., (measuring points 1 to 15), after which 40 μL of the R2 reagent was added to initiate the reaction (measuring point 16). The absorbance of water (blank) at the same measuring points was subtracted from the absorbance of the sample about 3.5 to 4.5 minutes after the reaction was initiated by addition of the R2 reagent (measuring points 27 to 30) to calculate the absorbance change per minute (ΔmAbs/min), and the Lp-PLA2 activity value (nmol/min/mL) was calculated according to the previous formula. […]
(measuring points 1 to 16), after which 100 μL of the R2 reagent was added to initiate a reaction (measuring point 17). The absorbance of water (blank) at the same measuring points was subtracted from the absorbance of the sample about 3.5 to 4.5 minutes after the reaction was initiated by addition of the R2 reagent (measuring points 29 to 32) to calculate the absorbance change per minute (ΔmAbs/min), and the Lp-PLA2 activity value (nmol/min/mL) was calculated according to the previous formula.

A further test has as its target T2, rLp-PLA2 (Homo sapiens, UniProt Q13093, I42M).
T2 construct: histidine tag (from vector pET-19b) (N); made in house; host or cells: E. coli BL21(DE3), plasmid Lp-PLA2/pET-19b
T2 sequence (Q13093 42-441 I42M): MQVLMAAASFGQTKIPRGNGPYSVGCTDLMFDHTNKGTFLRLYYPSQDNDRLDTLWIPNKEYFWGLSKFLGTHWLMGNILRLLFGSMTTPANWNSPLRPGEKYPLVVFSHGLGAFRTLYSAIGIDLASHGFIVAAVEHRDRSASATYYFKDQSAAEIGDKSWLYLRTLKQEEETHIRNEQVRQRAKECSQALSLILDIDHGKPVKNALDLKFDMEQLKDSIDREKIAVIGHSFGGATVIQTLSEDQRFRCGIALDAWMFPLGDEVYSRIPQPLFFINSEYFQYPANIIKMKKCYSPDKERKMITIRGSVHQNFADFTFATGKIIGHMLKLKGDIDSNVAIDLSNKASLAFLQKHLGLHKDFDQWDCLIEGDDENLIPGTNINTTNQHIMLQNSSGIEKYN
Briefly: Lp-PLA2 activity measurement with reagents of the invention, recombinant Lp-PLA2 as sample. Format: biochemical. Particulars: Example 9, sample rLp-PLA2 (0.017 mg/mL); for Lp-PLA2 activity value / absorbance change per minute (sensitivity): 10 mM substrate in R2; for Relative activity: PAF(C16) = 100. The method, then: The recombinant Lp-PLA2 (rLp-PLA2) used in these examples was prepared in accordance with Reference Examples 4 to 6 based on the information disclosed in J. Biol. Chem., Oct. 27, 1995, No. 43, Vol. 270, pp. 25481-25487.
A gene optimized for E. coli (matched to E. coli codon usage) was synthesized (GenScript (NJ, USA)) based on the sequence data for a human Lp-PLA2 gene. Using the synthesized DNA as a template, a roughly 1200 bp PCR product was obtained by PCR using KOD FX (Toyobo Co., Ltd.) using as the sense primer the nucleotide sequence of SEQ ID NO: 5 in which the 42nd isoleucine was changed to the sequence of the initial methionine, with the nucleotide sequence of SEQ ID NO: 6 as the antisense primer. The resulting PCR product was digested with NdeI (Takara Bio Inc.) and BamHI (Takara Bio Inc.), and inserted into the NdeI-BamHI site of the expression vector pET-19b (Novagen) to obtain an Lp-PLA2/pET-19b expression plasmid. This expression plasmid was transformed into One shot BL21(DE3) Chemically Competent E. coli, to obtain a transformant called Lp-PLA2/pET-19b/BL21(DE3) comprising a recombinant vector containing a polynucleotide consisting of a nucleotide sequence encoding Lp-PLA2 with a histidine tag from the vector added at the N-terminus.
as §1

With `CCCCCCCCCCCCCCCC(=O)OC[C@H](COP(=O)([O-])OCC[N+](C)(C)C)OC(C)=O` [1-Palmitoyl-2-acetyl-sn-glycero-PC, 1-Palmitoyl-2-acetyl-sn-glycero-3-phosphocholine], the Lp-PLA2 activity value on Lp-PLA2 (sample Citrated pooled plasma) turned out to be 34.4 nmol/min/mL; on Lp-PLA2 (sample Heparin pooled plasma), 44.1 nmol/min/mL; on Lp-PLA2 (sample Individual serum 16) it was 82.3 nmol/min/mL; on Lp-PLA2 (sample Pooled serum C), 44.9 nmol/min/mL; at Lp-PLA2 (sample Pooled serum J042), 45.2 nmol/min/mL; on rLp-PLA2, 98.7 nmol/min/mL. Further, the “absorbance change per minute (sensitivity)” value (“absorbance change per minute” for short) at Lp-PLA2 (sample Citrated pooled plasma) is listed as 24.3 ΔmAbs/min; on Lp-PLA2 (sample Heparin pooled plasma), 31.1 ΔmAbs/min; at Lp-PLA2 (sample Individual serum 16), 58.1 ΔmAbs/min; at Lp-PLA2 (sample Pooled serum C), 31.7 ΔmAbs/min; at Lp-PLA2 (sample Pooled serum J042), 31.9 ΔmAbs/min; at rLp-PLA2 it was 69.7 ΔmAbs/min. In addition, the Relative activity is 103% at Lp-PLA2 (sample Citrated pooled plasma); 99% at Lp-PLA2 (sample Heparin pooled plasma); 87% at Lp-PLA2 (sample Individual serum 16); 110% on Lp-PLA2 (sample Pooled serum C); 111% at Lp-PLA2 (sample Pooled serum J042); 75% at rLp-PLA2.
As for `CCCCCCCCCCCCCCCCOC[C@H](COP(=O)([O-])OCC[N+](C)(C)C)OC(C)=O` [PAF(C16), 1-O-Hexadecyl-2-acetyl-sn-glycero-3-phosphocholine], the Lp-PLA2 activity value was determined as 33.3 nmol/min/mL at Lp-PLA2 (sample Citrated pooled plasma); 44.3 nmol/min/mL on Lp-PLA2 (sample Heparin pooled plasma); 94.8 nmol/min/mL at Lp-PLA2 (sample Individual serum 16); 40.8 nmol/min/mL on Lp-PLA2 (sample Pooled serum C); 40.8 nmol/min/mL at Lp-PLA2 (sample Pooled serum J042); 132.3 nmol/min/mL on rLp-PLA2. Also, the “absorbance change per minute” value is reported as 23.5 ΔmAbs/min on Lp-PLA2 (sample Citrated pooled plasma); 31.3 ΔmAbs/min at Lp-PLA2 (sample Heparin pooled plasma); 66.9 ΔmAbs/min on Lp-PLA2 (sample Individual serum 16); 28.8 ΔmAbs/min at Lp-PLA2 (sample Pooled serum C); 28.8 ΔmAbs/min at Lp-PLA2 (sample Pooled serum J042); 93.4 ΔmAbs/min on rLp-PLA2. Moreover, the Relative activity on Lp-PLA2 (sample Citrated pooled plasma), at Lp-PLA2 (sample Heparin pooled plasma), on Lp-PLA2 (sample Individual serum 16), on Lp-PLA2 (sample Pooled serum C), at Lp-PLA2 (sample Pooled serum J042) and on rLp-PLA2 was 100% in each case.
With `CCCCCCCCCCCCCCCCCCOC[C@H](COP(=O)([O-])OCC[N+](C)(C)C)OC(C)=O` [PAF(C18), 1-O-Octadecyl-2-acetyl-sn-glycero-3-phosphocholine], the Lp-PLA2 activity value on Lp-PLA2 (sample Citrated pooled plasma) is given as 27.8 nmol/min/mL; on Lp-PLA2 (sample Heparin pooled plasma) it was 38.7 nmol/min/mL; at Lp-PLA2 (sample Individual serum 16) it was 79.3 nmol/min/mL; at Lp-PLA2 (sample Pooled serum C) it was 35.6 nmol/min/mL; on Lp-PLA2 (sample Pooled serum J042), 35.4 nmol/min/mL; at rLp-PLA2, 74.1 nmol/min/mL. For the same molecule, the “absorbance change per minute” value is listed as 19.6 ΔmAbs/min on Lp-PLA2 (sample Citrated pooled plasma); 27.3 ΔmAbs/min on Lp-PLA2 (sample Heparin pooled plasma); 56.0 ΔmAbs/min at Lp-PLA2 (sample Individual serum 16); 25.1 ΔmAbs/min at Lp-PLA2 (sample Pooled serum C); 25.0 ΔmAbs/min on Lp-PLA2 (sample Pooled serum J042); 52.3 ΔmAbs/min on rLp-PLA2. Also, the Relative activity was 83% at Lp-PLA2 (sample Citrated pooled plasma); 87% at Lp-PLA2 (sample Heparin pooled plasma); 84% at Lp-PLA2 (sample Individual serum 16); 87% at Lp-PLA2 (sample Pooled serum C); 87% on Lp-PLA2 (sample Pooled serum J042); 56% at rLp-PLA2.
